From patent US12570642B2, “GLP-IR modulating compounds” (Gilead Sciences, Inc., priority 2021, dated 2026)

Molecular target: GLP-1R (Homo sapiens, UniProt P43220)
Assay: GLP-1R Activation - cAMP Assay
Assay type: cell-based
Details: cAMP increase in CHO cells stably expressing GLP-1R; each compound run on one of the two cAMP assays (Assay 1 or Assay 2, not specified)
Experimental: GLP-1R Activation—cAMP Assay 1
GLP-1R activation by compounds of the present disclosure were quantified by measuring cAMP increase in CHO cells stably expressing GLP-1R (MultiSpan product #C1267-1a). The cells were harvested and plated in growth medium (DMEM/F-12 (Corning product #10-090-CV) supplemented with 10% FBS (HyClone product #SH30071-03), penicillin/streptomycin (Corning product #30-002CI) and 10 μg/ml puromycin (Gibco product #A11138-03)) at 1,000 cells/well in a 384-well plate (Greiner product #781080). The cells were then incubated overnight at 37° C., 5% CO2. The next day, the medium was removed and the cells were washed with DPBS (Corning product #21-031-CM) before adding the assay medium (HBSS, Corning product #21-023-CV) with 20 mM Hepes (Gibco product #15630-080) and 0.1% BSA (Rockland Immunochemicals product #BSA-1000)). Following the medium change, the cells were incubated for 1 hour at 37° C., 5% CO2. The tested GLP-1 compound was added to the cells in a 10-point dose response followed by a 30 minutes incubation at 37° C., 5% CO2. cAMP concentration increase was then detected using Cisbio's cAMP Gs Dynamic Kit (product #62AM4PEC) according to the manufacturer's protocol. The response was plotted against the log of the agonist concentration and fitted to a sigmoidal equation to determine the EC50.

GLP-1R, sequence (P43220 24-463): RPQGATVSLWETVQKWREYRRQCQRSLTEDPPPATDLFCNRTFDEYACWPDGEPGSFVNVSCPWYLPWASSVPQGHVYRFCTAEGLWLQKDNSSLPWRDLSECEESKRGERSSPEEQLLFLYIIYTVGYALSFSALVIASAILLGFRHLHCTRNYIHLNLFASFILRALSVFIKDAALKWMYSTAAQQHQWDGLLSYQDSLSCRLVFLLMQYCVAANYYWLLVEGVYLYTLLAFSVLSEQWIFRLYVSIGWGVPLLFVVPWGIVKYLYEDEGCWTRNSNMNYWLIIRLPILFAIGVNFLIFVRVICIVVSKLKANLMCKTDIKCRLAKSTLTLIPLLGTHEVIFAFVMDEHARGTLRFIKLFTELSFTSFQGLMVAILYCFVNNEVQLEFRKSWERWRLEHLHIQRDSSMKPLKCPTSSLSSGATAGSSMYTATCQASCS

| EC50 [nM] | Structure (SMILES) |
| --- | --- |
| 0.971 | CC1(C)COC[C@@H]1n1c(Cc2cc(F)c(-c3cccc(OCc4ccc(C(F)F)cc4F)n3)cc2F)nc2ccc(C(=O)O)cc21 (single isomer, unassigned) [Example 383B] |
| 0.089 | CC1(C)COC[C@H]1n1c(Cc2cc(F)c(-c3cccc(OCc4ccc(Cl)cc4)n3)cc2F)nc2ccc(C(=O)O)cc21 (single isomer, unassigned) [Example 385A] |
| 1.12 | CC1(C)COC[C@@H]1n1c(Cc2cc(F)c(-c3cccc(OCc4ccc(Cl)cc4)n3)cc2F)nc2ccc(C(=O)O)cc21 (single isomer, unassigned) [Example 385B] |
| 0.633 | CO[C@@H]1CCOC[C@@H]1n1c(Cc2cc(F)c(-c3cccc(OCc4ccc(C#N)cc4F)n3)cc2F)nc2ccc(C(=O)O)cc21 (single isomer, unassigned) [Example 408] |
| 0.291 | CO[C@H]1CCOC[C@H]1n1c(Cc2cc(F)c(-c3cccc(OCc4ccc(C#N)cc4F)n3)cc2F)nc2ccc(C(=O)O)cc21 (single isomer, unassigned) [Example 409] |
| 0.06 | N#Cc1ccc(COc2cccc(-c3cc(F)c(Cc4nc5ccc(C(=O)O)cc5n4[C@@H]4COC[C@@H]4CO)cc3F)n2)c(F)c1 (single isomer, unassigned) [Example 435] |
| 0.993 | N#Cc1ccc(COc2cccc(-c3cc(F)c(Cc4nc5ccc(C(=O)O)cc5n4[C@H]4COC[C@H]4CO)cc3F)n2)c(F)c1 (single isomer, unassigned) [Example 436] |
| 0.092 | CO[C@]1(C)COC[C@@H]1n1c(Cc2cc(F)c(-c3cccc(OCc4ccc(Cl)cc4F)n3)cc2F)nc2ccc(C(=O)O)cc21 (single isomer, unassigned) [Example 473] |
| 0.181 | CO[C@@]1(C)COC[C@H]1n1c(Cc2cc(F)c(-c3cccc(OCc4ccc(Cl)cc4F)n3)cc2F)nc2ccc(C(=O)O)cc21 (single isomer, unassigned) [Example 474] |
| 0.281 | CC1(C)COC[C@H]1n1c(Cc2cc(F)c(-c3cccc(OCc4ccc(C(F)F)cc4F)n3)cc2F)nc2c(F)cc(C(=O)O)cc21 (single isomer, unassigned) [Example 502A] |
| 0.939 | CC1(C)COC[C@@H]1n1c(Cc2cc(F)c(-c3cccc(OCc4ccc(C(F)F)cc4F)n3)cc2F)nc2c(F)cc(C(=O)O)cc21 (single isomer, unassigned) [Example 502B] |
| 0.706 | COC[C@@]1(C)COCC1n1c(Cc2cc(F)c(-c3cccc(OCc4ccc(Cl)cc4F)n3)cc2F)nc2ccc(C(=O)O)cc21 (single isomer, unassigned) [Example 546] |
| 0.024 | COC[C@@]1(C)COCC1n1c(Cc2cc(F)c(-c3cccc(OCc4ccc(Cl)cc4F)n3)cc2F)nc2ccc(C(=O)O)cc21 (single isomer, unassigned) [Example 547] |
| 0.727 | COC[C@]1(C)COCC1n1c(Cc2cc(F)c(-c3cccc(OCc4ccc(Cl)cc4F)n3)cc2F)nc2ccc(C(=O)O)cc21 (stereo in doubt) [Example 549, 2-(4-(6-((4-chloro-2-fluorobenzyl)oxy)pyridin-2-yl)-2,5-difluorobenzyl)-1-((3R,4S)-4-(methoxymethyl)-4-methyltetrahydrofuran-3-yl)-1H-benzo[d]imidazole-6-carboxylic acid] |
| 0.322 | O=C(O)c1ccc2nc(Cc3cc(F)c(-c4cccc(OCc5ccc(Cl)cc5F)n4)cc3F)n(C3COC4CC3C4)c2c1 (stereo in doubt) [Example 572, (R)-1-(2-oxabicyclo[3.1.1]heptan-4-yl)-2-(4-(6-((4-chloro-2-fluorobenzyl)oxy)pyridin-2-yl)-2,5-difluorobenzyl)-1H-benzo[d]imidazole-6-carboxylic acid] |
| 0.188 | O=C(O)c1ccc2nc(Cc3cc(F)c(-c4cccc(OCc5ccc(Cl)cc5F)n4)cc3F)n(C3COC4CC3C4)c2c1 (stereo in doubt) [Example 573, (S)-1-(2-oxabicyclo[3.1.1]heptan-4-yl)-2-(4-(6-((4-chloro-2-fluorobenzyl)oxy)pyridin-2-yl)-2,5-difluorobenzyl)-1H-benzo[d]imidazole-6-carboxylic acid] |
